Test results as given in US7786083B2, “Metastin derivatives and use thereof” (Takeda Pharmaceutical Company Limited, priority 2006, dated 2010).
*1 amine or outer side, *2 acyl side, *3 side chain or, on linkers, in order; H or OH if unused. Where a SMILES comes first, the peptide text is derived from it. [ ]: non-standard residue; d: D form. Glyψ(E-CHCH)Leu = CC(C)C[C@H](/C=C/CN[*:1])C(=O)[*:2]; X3 = O=C(CC[C@@H](O)[C@H](Cc1ccccc1)N[*:1])[*:2]; X9 = O=C(CCC[C@H](Cc1ccccc1)N[*:1])[*:2]; Phe(2-Me) = Cc1ccccc1C[C@H](N)C(=O)O; Arg(Me) = CNC(=N)NCCC[C@H](N)C(=O)O; Dap(CONH2) = NC(=O)NC[C@H](N)C(=O)O; Ala(cPr) = N[C@@H](CC1CC1)C(=O)O; Hyp = O=C(O)[C@@H]1C[C@@H](O)CN1; Cha = N[C@@H](CC1CCCCC1)C(=O)O; Cba = N[C@@H](CC1CCC1)C(=O)O; Dap = NC[C@H](N)C(=O)O

What follows are molecules tested on metastin receptors (assay: Measurement of agonist activity by assaying changes in intracellular calcium ion level (FLIPR, Fluo-4 NW)). Settings: specific activity of the EC50 of a test compound based on the EC50 of Metastin (45-54), metastin receptor expression CHO cells.
Format: cell-based, human
Outline: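 CHO/dhfr⁻ cells stably expressing human or rat metastin receptor, seeded 3×10^4/well for 24 h, loaded with Fluo-4 NW 30 min at 37 °C in HBSS with 0.1% BSA, 20 mM HEPES pH 7.4 and 1 mM probenecid. Compound-stimulated intracellular calcium change read on FLIPR.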

| SMILES | Specific Activity |
| --- | --- |
| CNC(=N)NCCC[C@H](NC(=O)[C@@H](/C=C/CNC(=O)[C@H](CC1CCCCC1)NC(=O)[C@@H](NC(=O)[C@H](CCC(N)=O)NC(=O)[C@@H]1C[C@@H](O)CN1C(=O)[C@@H](Cc1ccc(O)cc1)NC(C)=O)[C@@H](C)O)CC(C)C)C(=O)N[C@@H](Cc1c[nH]c2ccccc12)C(N)=O [Compound No. 913, des(1)-Ac-[D-Tyr2,Hyp3,Gln4,Thr5,Cha6,Gly7Ψ((E)CH═CH)Leu8,Arg(Me)9,Trp10]MS10] (Ac-[dY][Hyp]QT[Cha][Glyψ(E-CHCH)Leu][Arg(Me)]W-NH2) | 1.4 |
| CNC(=N)NCCC[C@H](NC(=O)[C@H](CC1CC1)NC(=O)CNC(=O)[C@H](CC1CCCCC1)NC(=O)[C@H](CO)NC(=O)[C@H](CNC(N)=O)NC(=O)[C@@H]1C[C@@H](O)CN1C(=O)[C@@H](Cc1ccc(O)cc1)NC(C)=O)C(=O)N[C@@H](Cc1c[nH]c2ccccc12)C(N)=O [Compound No. 948, des(1)-Ac-[D-Tyr2,Hyp3,Alb4,Ser5,Cha6,Ala(cPr)8,Arg(Me)9,Trp10]MS10] (Ac-[dY][Hyp][Dap(CONH2)]S[Cha]G[Ala(cPr)][Arg(Me)]W-NH2) | 0.5 |
| CNC(=N)NCCC[C@H](NC(=O)[C@H](CC(C)C)NC(=O)CNC(=O)[C@H](Cc1ccccc1C)NC(=O)[C@@H](NC(=O)[C@H](CC(N)=O)NC(=O)[C@@H]1C[C@@H](O)CN1C(=O)[C@@H](Cc1ccc(O)cc1)NC(C)=O)[C@@H](C)O)C(=O)N[C@@H](Cc1c[nH]c2ccccc12)C(N)=O [Compound No. 871, des(1)-Ac-[D-Tyr2,Hyp3,Thr5,Phe(2Me)6,Arg(Me)9,Trp10]MS10] (Ac-[dY][Hyp]NT[Phe(2-Me)]GL[Arg(Me)]W-NH2) | 0.7 |
| CNC(=N)NCCC[C@H](NC(=O)[C@H](CC(C)C)NC(=O)CNC(=O)[C@H](Cc1ccccc1)NC(=O)[C@@H](NC(=O)[C@H](CC(N)=O)NC(=O)[C@@H]1C[C@@H](O)CN1C(=O)[C@@H](Cc1ccc(O)cc1)NC(C)=O)[C@@H](C)O)C(=O)N[C@@H](Cc1c[nH]c2ccccc12)C(N)=O [Compound No. 796, des(1)-Ac-[D-Tyr2,Hyp3,Thr5,Arg(Me)9,Trp10]MS10] (Ac-[dY][Hyp]NTFGL[Arg(Me)]W-NH2) | 1.2 |
| CNC(=N)NCCC[C@H](NC(=O)[C@H](CC(C)C)NC(=O)CCC[C@H](Cc1ccccc1)NC(=O)[C@@H](NC(=O)[C@H](CC(N)=O)NC(=O)[C@@H]1C[C@@H](O)CN1C(=O)[C@@H](Cc1ccc(O)cc1)NC(C)=O)[C@@H](C)O)C(=O)N[C@@H](Cc1c[nH]c2ccccc12)C(N)=O [Compound No. 850, des(1)-Ac-[D-Tyr2,Hyp3,Thr5,Phe6Ψ(CH2CH2)Gly7,Arg(Me)9,Trp10]MS10] (Ac-[dY][Hyp]NT[X9]L[Arg(Me)]W-NH2) | 1.3 |
| CNC(=N)NCCC[C@H](NC(=O)[C@H](CC(C)C)NC(=O)[C@H](CN)NC(=O)[C@H](Cc1ccccc1)NC(=O)[C@@H](NC(=O)[C@H](CC(N)=O)NC(=O)[C@@H]1C[C@@H](O)CN1C(=O)[C@@H](Cc1ccc(O)cc1)NC(C)=O)[C@@H](C)O)C(=O)N[C@@H](Cc1c[nH]c2ccccc12)C(N)=O [Compound No. 827, des(1)-Ac-[D-Tyr2,Hyp3,Thr5,Dap7,Arg(Me)9,Trp10]MS10] (Ac-[dY][Hyp]NTF[Dap]L[Arg(Me)]W-NH2) | 1.3 |
| CNC(=N)NCCC[C@H](NC(=O)[C@@H](/C=C/CNC(=O)[C@H](Cc1ccccc1)NC(=O)[C@@H](NC(=O)[C@H](CC(N)=O)NC(=O)[C@H](CCC(=O)O)NC(=O)[C@@H](Cc1ccc(O)cc1)NC(C)=O)[C@@H](C)O)CC(C)C)C(=O)N[C@@H](Cc1c[nH]c2ccccc12)C(N)=O [Compound No. 907, des(1)-Ac-[D-Tyr2,Glu3,Thr5,Gly7Ψ((E)CH═CH)Leu8,Arg(Me)9,Trp10]MS10] (Ac-[dY]ENTF[Glyψ(E-CHCH)Leu][Arg(Me)]W-NH2) | 0.6 |
| CNC(=N)NCCC[C@H](NC(=O)[C@@H](/C=C/CNC(=O)[C@H](Cc1ccccc1)NC(=O)[C@@H](NC(=O)[C@H](CC(N)=O)NC(=O)[C@@H]1C[C@@H](O)CN1C(=O)[C@@H](Cc1ccc(O)cc1)NC(C)=O)[C@@H](C)O)CC(C)C)C(=O)N[C@@H](Cc1c[nH]c2ccccc12)C(N)=O [Compound No. 892, des(1)-Ac-[D-Tyr2,Hyp3,Thr5,Gly7Ψ((E)CH═CH)Leu8,Arg[(Me)9,Trp10]MS10] (Ac-[dY][Hyp]NTF[Glyψ(E-CHCH)Leu][Arg(Me)]W-NH2) | 0.6 |
| CNC(=N)NCCC[C@H](NC(=O)[C@H](CC1CC1)NC(=O)CNC(=O)[C@H](CC1CCCCC1)NC(=O)[C@@H](NC(=O)[C@H](CC(N)=O)NC(=O)[C@H](CC(=O)O)NC(=O)[C@@H](Cc1ccc(O)cc1)NC(C)=O)[C@@H](C)O)C(=O)N[C@@H](Cc1c[nH]c2ccccc12)C(N)=O [Compound No. 909, des(1)-Ac-[D-Tyr2,Asp3,Thr5,Cha6,Ala(cPr)8,Arg(Me)9,Trp10]MS10] (Ac-[dY]DNT[Cha]G[Ala(cPr)][Arg(Me)]W-NH2) | 2.5 |
| CNC(=N)NCCC[C@H](NC(=O)[C@H](CC1CC1)NC(=O)CNC(=O)[C@H](CC1CCC1)NC(=O)[C@@H](NC(=O)[C@H](CC(N)=O)NC(=O)[C@@H]1C[C@@H](O)CN1C(=O)[C@@H](Cc1ccc(O)cc1)NC(C)=O)[C@@H](C)O)C(=O)N[C@@H](Cc1c[nH]c2ccccc12)C(N)=O [Compound No. 945, des(1)-Ac-[D-Tyr2,Hyp3,Thr5,Ala(cBu)6,Ala(cPr)8,Arg(Me)9,Trp10]MS10] (Ac-[dY][Hyp]NT[Cba]G[Ala(cPr)][Arg(Me)]W-NH2) | 0.7 |
| CNC(=N)NCCC[C@H](NC(=O)[C@@H](/C=C/CNC(=O)[C@H](CC1CCCCC1)NC(=O)[C@@H](NC(=O)[C@H](CCC(=O)O)NC(=O)[C@@H]1C[C@@H](O)CN1C(=O)[C@@H](Cc1ccc(O)cc1)NC(C)=O)[C@@H](C)O)CC(C)C)C(=O)N[C@@H](Cc1c[nH]c2ccccc12)C(N)=O [Compound No. 915, des(1)-Ac-[D-Tyr2,Hyp3,Glu4,Thr5,Cha6,Gly7Ψ((E)CH═CH)Leu8,Arg(Me)9,Trp10]MS10] (Ac-[dY][Hyp]ET[Cha][Glyψ(E-CHCH)Leu][Arg(Me)]W-NH2) | 4.6 |
| CNC(=N)NCCC[C@H](NC(=O)[C@@H](/C=C/CNC(=O)[C@H](CC1CCCCC1)NC(=O)[C@@H](NC(=O)[C@H](CNC(N)=O)NC(=O)[C@H](CCC(=O)O)NC(=O)[C@@H](Cc1ccc(O)cc1)NC(C)=O)[C@@H](C)O)CC(C)C)C(=O)N[C@@H](Cc1c[nH]c2ccccc12)C(N)=O [Compound No. 905, des(1)-Ac-[D-Tyr2,Glu3,Alb4,Thr5,Cha6,Gly7Ψ((E)CH═CH)Leu8,Arg(Me)9,Trp10]MS10] (Ac-[dY]E[Dap(CONH2)]T[Cha][Glyψ(E-CHCH)Leu][Arg(Me)]W-NH2) | 0.5 |
| CNC(=N)NCCC[C@H](NC(=O)[C@H](CC(C)C)NC(=O)CC[C@@H](O)[C@H](Cc1ccccc1)NC(=O)[C@@H](NC(=O)[C@H](CC(N)=O)NC(=O)[C@@H]1C[C@@H](O)CN1C(=O)[C@@H](Cc1ccc(O)cc1)NC(C)=O)[C@@H](C)O)C(=O)N[C@@H](Cc1c[nH]c2ccccc12)C(N)=O [Compound No. 867, des(1)-Ac-[D-Tyr2,Hyp3,Thr5,Phe6Ψ((R)CHOH—CH2)Gly7,Arg(Me)9,Trp10]MS10] (Ac-[dY][Hyp]NT[X3]L[Arg(Me)]W-NH2) | 0.8 |
